From patent publication US20120282646A1, “METHOD FOR ACTIVATING A NATURAL KILLER CELL BY ADJUSTING THE EXPRESSION OF THE SOCS2 GENE” (Korea Research Institute of Bioscience and Biotechnology, priority 2009, published 2012)
Where a SMILES comes first, the peptide text is derived from it. The star is where a group is joined. Cbz = O=C(OCc1ccccc1)*

What was measured:
Format in all cases: cell-based, human
SOCS2 = SOCS2 protein knockdown by siRNA, Western blot; conditions: primary NK cells transduced with siRNA, IL-15 stimulation 16 hr
Protocol: (§1) Each NK cell was lysed in RIPA buffer (50 mM Tris-HCl, pH 7.4, 150 mM NaCl, 0.25% SDS, 1% NP-40, 1 mM EDTA, a protease inhibitor cocktail, and a phosphate inhibitor cocktail) and the concentration of protein present in the whole cell lysate was determined using BCA Protein Assay Kit (Pierce, U.S.A.). 30 μg of each protein sample was resolved using 10 or 12% SDS-PAGE gel and transferred to an Immobilon-P membrane (Millipore Corporation, U.S.A.). The membrane was blocked with 5% skim milk and treated with anti-SOCS2 antibody (Santa Cruz, U.S.A.) as a primary antibody for 1 day at 4° C. HRP-conjugated anti-rabbit secondary antibody (Santa Cruz, U.S.A.) was attached to the primary antibody-treated membrane, and then, Immobilon Western Chemiluminescent HRP Substrate (Milipore Corporation) was added thereto. The membrane was exposed to X-ray film. As quantitative control, the amount of expression of GAPDH was examined using anti-GAPDH primary antibody (Santa Cruz, U.S.A.) by the above method.
IL-15 is an essential cytokine for NK cell differentiation. With SOCS2 expression inhibited, the present inventors measured the NK cell differentiation by IL-15 stimulation. […] Concurrently, β-actin expression was also observed by using anti-β-actin primary antibody (Santa Cruz, U.S.A.) as a quantitative control.

primary NK cells [1] = experiment: NK cell differentiation, CD-56 expression by FACS; conditions: primary NK cells transduced with siRNA, day 2, 3, 5, IL-15 stimulation
Protocol: Also, to determine whether the inhibition of SOCS2 expression affected the NK cell differentiation or not, primary NK cells were transduced with siRNA and CD-56 expression was measured by performing FACS on the cells at 2, 3, and 5th day.

primary NK cells [2] = experiment: Western blot of SOCS2 and p-Pyk2Tyr402 after IL-15 in primary NK cells; conditions: primary NK cells with or without IL-15
Protocol: as §1
NK cells cultured without or with IL-15, Western blot analysis was carried out using the same method in Example <2-1> with anti-SOCS2 antibody, anti-p-Pyk2^Tyr402 antibody, anti-Pyk2 antibody and anti-GAPDH antibody.

NK-92 cells [3] = experiment: Western blot of SOCS2 and p-Pyk2Tyr402 after IL-15 in NK-92 cells; conditions: IL-15 for 6, 12 or 24 hr
Protocol: as §1
To assess how SOCS2 which binds with p-Pyk2^Tyr402 in NK cells regulates Pyk2, the following experiment was carried out. With NK-92 cells cultured without or with IL-15 for 6, 12 or 24 hr using the same method in Example <2-2>, Western blot analysis was carried out using the same method in Example <2-1> with anti-SOCS2 antibody, anti-p-Pyk2^Tyr402 antibody, anti-Pyk2 antibody and anti-GAPDH antibody. […]

primary NK cells [4] = experiment: socs1, socs2, socs3 mRNA expression by real time PCR in IL-15-stimulated primary NK cells; conditions: IL-15 stimulation after deprivation
Protocol: Deprivation and IL-15 stimulation was carried out with primary NK cells using the same method in Example <2-2>. The amounts of mRNA expression of socs1, socs2 and socs3 were measured by real time PCR. Primers in Table 1 and Table 3 were used.
Specifically, each NK cell was collected and total RNA was extracted using Trizol Reagent (Invitrogen, U.S.A.). Then, 1 μg of the RNA was reverse transcribed into cDNA using reverse transcriptase superscript II (Invitrogen). Using the cDNA as template, real time PCR was performed with the 2×SYBR Premix Ex Taq™ (TaKaRa, Japan) and SOCS2 primer pairs of Table 2 (Exicycler version 2, Bioneer, Republic of Korea). Concurrently, using GAPDH (Glyceraldehyde-3-phosphate dehydrogenase) as a quantitative control, real time PCR was performed with GAPDH primer pair of Table 2. The PCR condition was as follows: denaturation of 10 min at 95° C.; 40 cycles of […], 30 sec at 60° C., and 1 min at 72° C.; and extension of 8 min at 72° C. followed by cooling to room temperature. After analyzing real time PCR data by the comparative CT (2^−ΔΔCt) method which normalizes the amount of socs2 expression of each sample to the amount of GAPDH expression, the relative amount of SOCS2 expression in differentiated NK cells at each day to the amount of socs2 expression in primary NK cells was shown as a graph in FIG. 1(a).

Pyk2 [5] = experiment: Immunoprecipitation for ubiquitination of Pyk2 after IL-15 in NK-92 cells; conditions: NK-92 cells stimulated with IL-15, anti-Pyk2 immunoprecipitation
Protocol: To determine whether the decrease in p-Pyk2^Tyr402 by SOCS2 expression, confirmed in Example <13> resulted from the ubiquitin-mediated proteasomal degradation of p-Pyk2^Tyr402 by increased SOCS2 by IL-15, the following experiment was carried out. NK-92 cells stimulated with IL-15 as in Example <2-2> were lysed and the cell lysates were allowed to react with anti-Pyk2 antibody. The antigen-antibody complexes were precipitated by incubation at 4° C. for 1 day with G-protein-conjugated agarose. The immunoprecipitated complexes were washed with 1×PBS. Western blot analysis was performed by the same method in Example <2-1> using anti-ubiquitin antibody (Santa Cruz, U.S.A.), anti-SOCS2 antibody, anti-p-Pyk2^Tyr402 antibody, anti-Pyk2 antibody, and anti-GAPDH antibody.

[6] = tested on: NK-92 cells and primary NK cells; experiment: SOCS2 protein expression by Western blot after IL-15 stimulation; conditions: IL-15 stimulation after deprivation
Protocol: as §1, with “method. […]” for “method.”

NK-92 cells [7] = experiment: socs2 mRNA expression by real time PCR in cytokine-treated NK-92 cells
Protocol: NK cell differentiation is mediated by IL-15 (Interleukin 15) cytokine. To determine whether the SOCS2 upregulation following NK cell differentiation was induced by IL-15, the present inventors experimented on the IL-15-induced SOCS2 upregulation in mature NK cells. The experimented NK-92 human NK cells and primary NK cells live and proliferate in the condition where IL-15 exists. Accordingly, to measure the effect of IL-15, deprivation of IL-15 was carried out by culturing cells in a medium without IL-15 for 24 hr prior to IL-15 treatment, and then the medium was replaced with a medium containing 10 ng/mL IL-15 to make a cell differentiation condition. Real time PCR was carried out with NK-92 cells at 4, 8, 12, and 16th hr after the replacement of the medium using the same method in Example <3-1-1> to measure the amount of socs2 mRNA expression.
Specifically, each NK cell was collected and total RNA was extracted using Trizol Reagent (Invitrogen, U.S.A.). Then, 1 μg of the RNA was reverse transcribed into cDNA using reverse transcriptase superscript II (Invitrogen). […] Concurrently, using GAPDH (Glyceraldehyde-3-phosphate dehydrogenase) as a quantitative control, real time PCR was performed with GAPDH primer pair of Table 2. […]

NK-92 cells [8] = experiment: Cytotoxicity of MAPK inhibitor-treated NK-92 cells against K562; conditions: NK-92 cells treated with 10 mM inhibitor; compared with ERK and p38 inhibitors
Pyk2 [9] = experiment: Immunoprecipitation of Flag-Pyk2, GST-SOCS2 and HA-ubiquitin in 293T cells; conditions: MG132-containing medium vs general culture medium
Protocol: In order to determine whether SOCS2 inhibits the proteasome-mediated Pyk2 degradation or not, the following experiment was carried out. First of all, pGST-SOCS2, pFlag-Pyk2, and HA-ubiquitin (AddGene) were cotransformed into 293T cells using Lipofectamin 2000. After 4 hr of transformation, the medium was replaced to a general culture medium or MG132 (proteasome inhibitor)-containing medium, and 24 hr later, cells were lysed. The each cell lysate was allowed to react with anti-Flag antibody or anti-GST antibody. The antigen-antibody complexes were precipitated by incubation at 4° C. for 1 day with G-protein-conjugated agarose (Roshe, Switzerland). The immunoprecipitated complexes were washed with 1×PBS. Western blot analysis was performed by the same method in Example <2-1> using anti-GST antibody, anti-Flag antibody, or anti-HA antibody (Santa Cruz, U.S.A.).

Pyk2 [10] = experiment: GST pull down of GST-SOCS2 and Flag-Pyk2 in 293T cells; conditions: MG132-containing medium vs general culture medium
Protocol: The GST expression vector and pFlag-Pyk2, or pGST-SOCS2 and pFlag-Pyk2 were cotransformed into 293T cells using Lipofectamin 2000 (Invitrogen, U.S.A.). After 4 hr of transformation, the medium was replaced to a general culture medium or MG132 (proteasome inhibitor)-containing medium, and […], cells were lysed. The each cell lysate was allowed to react with glutathione-sepharose bead (GE Healthcare, U.S.A.) at 4° C. for 4 hr. Western blot analysis was performed by the same method in Example <2-1> using anti-Flag primary antibody (Santa Cruz, U.S.A.) or anti-GST primary antibody (Santa Cruz, U.S.A.).

SOCS2 siRNA: SOCS2 siRNA (Dharmacon, SEQ ID NO.12: 5′-CGACUACUAUGUUCAGAUG-3′) (listed as RNA, chemistry not given here)
SOCS2 protein expression (SOCS2): SOCS2 protein expression was inhibited | CD-56 expression (NK cell differentiation) (primary NK cells [1]): increased CD-56 expression similarly regardless of whether SOCS2 protein was expressed or not

IL-15: cytokine priming NK cell differentiation (Peprotech)
expression of SOCS2 and phosphorylation of Pyk2 (primary NK cells [2]): induced the expression of SOCS2 and the decrease in the phosphorylation of Pyk2 | SOCS2 expression (NK-92 cells [3]): increased in an IL-15 stimulation time-dependent manner | phosphorylation of tyrosine 402 in Pyk2 (NK-92 cells [3]): decreased | mRNA expression of socs1, socs2 and socs3 (primary NK cells [4]): only socs2 mRNA expression among SOCS family members increased | phosphorylation of Pyk2 (Pyk2 [5]): phosphorylation of Pyk2 decreased | ubiquitination of Pyk2 (Pyk2 [5]): ubiquitination of Pyk2 increased | SOCS2 protein expression [6]: IL-15 stimulated SOCS2 expression was observed in both NK-92 cells and primary NK cells | SOCS2 expression (socs2 mRNA) (NK-92 cells [7]; NK-92 cells deprived of IL-15 24 hr, then 10 ng/mL IL-15, 4, 8, 12, 16 hr): SOCS2 expression increased in NK-92 cells | SOCS2 expression (mRNA), specificity among cytokines (NK-92 cells [7]; deprived NK-92 cells, 30 ng/mL IL7, IL-12, IL-15, IL-18, IL-21 for 16 hr): SOCS2 expression was induced specifically by IL-15 stimulation

Oc1c2ccccc2c2c3c(cccc13)N=N2 [JNK inhibitor, SP600125]
cytotoxicity against the K562 cancer cell line (NK-92 cells [8]): most significantly reduced

CC(C)C[C@@H](C=O)NC(=O)[C@H](CC(C)C)NC(=O)[C@H](CC(C)C)NC(=O)OCc1ccccc1 [MG132] (Cbz-Leu-Leu-Leu-aldehyde)
GST band and HA (ubiquitin) bands in anti-Flag immunoprecipitate (Pyk2 [9]): significantly large GST band and more HA bands | Flag band (Flag-Pyk2) in GST pull down (Pyk2 [10]): significantly large Flag band
